In US9758527B2, “Cyclohexene derivative, preparation method therefor, and pharmaceutical composition for preventing or treating metabolic diseases, containing same as active ingredient” (HYUNDAI PHARM CO., LTD., priority 2014, dated 2017):
Structures can show the parent of a compound that is named as a salt. Where two headings read alike, the source gives them in different places.

Biological target: T1, G protein-coupled receptor 119 (GPR-119) (Mesocricetus auratus, UniProt A0A1U8CD06)
T1 construct: hamster-derived β-cells containing G protein-coupled receptor 119 (GPR-119), HIT-T15 cells; host or cells: HIT-T15 (hamster pancreatic β-cells)
T1 sequence (A0A1U8CD06 1-334): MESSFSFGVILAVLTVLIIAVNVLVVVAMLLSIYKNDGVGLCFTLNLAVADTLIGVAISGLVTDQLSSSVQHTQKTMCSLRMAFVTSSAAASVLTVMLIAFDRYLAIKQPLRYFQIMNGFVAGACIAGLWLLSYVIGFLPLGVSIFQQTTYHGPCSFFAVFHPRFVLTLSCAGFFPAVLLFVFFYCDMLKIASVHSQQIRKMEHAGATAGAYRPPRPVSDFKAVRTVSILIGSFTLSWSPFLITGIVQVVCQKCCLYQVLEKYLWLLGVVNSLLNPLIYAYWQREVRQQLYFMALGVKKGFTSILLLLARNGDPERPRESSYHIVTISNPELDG
Assay: Evaluation of cAMP activity in HIT-T15 cells (HTRF cAMP dynamic kit)
Assay type: cell-based, hamster
Details: cAMP activation
Method in brief: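 HIT-T15 cells, 60,000/well, treated next day with compound at six concentrations ([…]) for 1 h at 37° C. Lysate cAMP quantified by HTRF competitive immunoassay (D2-cAMP, cryptate anti-cAMP); activity taken as change in FRET signal relative to DMSO.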

[1] = 1 h at 37° C., six concentrations, read-out: EC50

SMILES | EC50 [1] [µM] | EC50 (read-out: EC50 value) [µM]
CC(C)c1noc(N2CCC(COc3ccc(C4=CCC(C(=O)N[C@@H](C)CO)CC4)cc3F)CC2)n1 (stereo partly drawn) [Example 83, 4-(3-fluoro-4-((1-(3-isopropyl-1,2,4-oxadiazol-5-yl)piperidin-4-yl)methoxy)phenyl)-N-((S)-1-hydroxypropan-2-yl)cyclohex-3-enecarboxamide] | 0.075 | –
CCc1cnc(N2CCC(COc3ccc(C4=CCC(C(=O)N5CCN(CC)CC5)CC4)cc3)CC2)nc1 (stereo not shown) [Example 55, (4-ethylpiperazin-1-yl)(4-(4-((1-(5-ethylpyrimidin-2-yl)piperidin-4-yl)methoxy)phenyl)cyclohex-3-enyl)methanone] | 0.1 | –
CCN1CCN(C(=O)C2CC=C(c3ccc(OCC4CCN(c5nc(C(C)C)no5)CC4)cc3)CC2)CC1 (stereo not shown) [Example 79, (4-ethylpiperazin-1-yl)(4-(4-((1-(3-isopropyl-1,2,4-oxadiazol-5-yl)piperidin-4-yl)methoxy)phenyl)cyclohex-3-enyl)methanone] | 0.049 | ≤ 0.05
CC(C)c1noc(N2CCC(COc3ccc(C4=CCC(C(=O)N5CCOCC5)CC4)nc3)CC2)n1 (stereo not shown) [Example 100, (4-(5-((1-(3-isopropyl-1,2,4-oxadiazol-5-yl)piperidin-4-yl)methoxy)pyridin-2-yl)cyclohex-3-enyl)(morpholino)methanone] | 0.095 | –
CC(C)c1noc(N2CCC(COc3ccc(C4=CCC(C(=O)NC[C@@H](C)O)CC4)cc3)CC2)n1 (stereo partly drawn) [Example 28, N-((R)-2-hydroxypropyl)-4-(4-((1-(3-isopropyl-1,2,4-oxadiazol-5-yl)piperidin-4-yl)methoxy)phenyl)cyclohex-3-enecarboxamide] | 0.11 | –
CC(C)c1noc(N2CCC(COc3ccc(C4=CCC(C(=O)NCCC(=O)N5CCC[C@H]5C(N)=O)CC4)cc3F)CC2)n1 (stereo partly drawn) [Example 134, (2S)-1-(3-(4-(3-fluoro-4-((1-(3-isopropyl-1,2,4-oxadiazol-5-yl)piperidin-4-yl)methoxy)phenyl)cyclohex-3-enecarboxamido)propanoyl)pyrrolidine-2-carboxamide] | 0.35 | –
CCc1cnc(N2CCC(COc3ccc(C4=CCC(C(=O)NCCF)CC4)cc3)CC2)nc1 (stereo not shown) [Example 104, 4-(4-((1-(5-ethylpyrimidin-2-yl)piperidin-4-yl)methoxy)phenyl)-N-(2-fluoroethyl)cyclohex-3-enecarboxamide] | 0.07 | –
C[C@H](O)CNC(=O)C1CC=C(c2ccc(OCC3CCN(C(=O)OC(C)(C)C)CC3)nc2)CC1 (stereo partly drawn) [Example 26, tert-butyl 4-((5-(4-((S)-2-hydroxypropylcarbamoyl)cyclohex-1-enyl)pyridin-2-yloxy)methyl)piperidine-1-carboxylate] | 0.25 | –
CC(C)c1noc(N2CCC(COc3ccc(C4=CCC(C(=O)NCC(=O)N5CCC[C@H]5C(N)=O)CC4)cc3F)CC2)n1 (stereo partly drawn) [Example 133, (2S)-1-(2-(4-(3-fluoro-4-((1-(3-isopropyl-1,2,4-oxadiazol-5-yl)piperidin-4-yl)methoxy)phenyl)cyclohex-3-enecarboxamido)acetyl)pyrrolidine-2-carboxamide] | 0.4 | –
CCOC(=O)CCNC(=O)C1CC=C(c2ccc(OCC3CCN(c4nc(C(C)C)no4)CC3)c(F)c2)CC1 (stereo not shown) [Example 110, ethyl 3-(4-(3-fluoro-4-((1-(3-isopropyl-1,2,4-oxadiazol-5-yl)piperidin-4-yl)methoxy)phenyl)cyclohex-3-enecarboxamido)propanoate] | 0.11 | –
CC(C)c1noc(N2CCC(COc3ccc(C4=CCC(C(=O)NCC(C)(C)CO)CC4)nc3)CC2)n1 (stereo not shown) [Example 47, N-(3-hydroxy-2,2-dimethylpropyl)-4-(5-((1-(3-isopropyl-1,2,4-oxadiazol-5-yl)piperidin-4-yl)methoxy)pyridin-2-yl)cyclohex-3-enecarboxamide] | 0.15 | –
C[C@@H](CO)NC(=O)C1CC=C(c2ccc(OCC3CCN(C(=O)OC(C)(C)C)CC3)nc2)CC1 (stereo partly drawn) [Example 24, tert-butyl 4-((5-(4-((S)-1-hydroxypropan-2-ylcarbamoyl)cyclohex-1-enyl)pyridin-2-yloxy)methyl)piperidine-1-carboxylate] | 0.26 | –
CC(C)(C)OC(=O)N1CCC(COc2ccc(C3=CCC(C(=O)N4CC[C@@H](F)C4)CC3)cc2F)CC1 (stereo partly drawn) [Example 58, tert-butyl 4-((2-fluoro-4-(4-((R)-3-fluoropyrrolidine-1-carbonyl)cyclohex-1-enyl)phenoxy)methyl)piperidine-1-carboxylate] | – | ≤ 0.05

The next lines start with the values.

EC50 [1] [µM] | EC50 (read-out: EC50 value) [µM] | SMILES
0.018 | – | CCc1cnc(N2CCC(COc3ccc(C4=CCC(C(=O)N5CCC(CCO)CC5)CC4)cc3)CC2)nc1 (stereo not shown) [Example 173, (4-(4-((1-(5-ethylpyrimidin-2-yl)piperidin-4-yl)methoxy)phenyl)cyclohex-3-enyl)(4-(2-hydroxyethyl)piperidin-1-yl)methanone]
0.042 | ≤ 0.05 | CC(C)c1noc(N2CCC(COc3ccc(C4=CCC(C(=O)N5CC[C@@H](F)C5)CC4)cc3)CC2)n1 (stereo partly drawn) [Example 54, ((R)-3-fluoropyrrolidin-1-yl)(4-(4-((1-(3-isopropyl-1,2,4-oxadiazol-5-yl)piperidin-4-yl)methoxy)phenyl)cyclohex-3-enyl)methanone]
0.013 | ≤ 0.05 | CC(C)(C)OC(=O)N1CCC(COc2ccc(C3=CCC(C(=O)N4CC[C@H](O)C4)CC3)cc2F)CC1 (stereo partly drawn) [Example 44, tert-butyl 4-((2-fluoro-4-(4-((S)-3-hydroxypyrrolidine-1-carbonyl)cyclohex-1-enyl)phenoxy)methyl)piperidine-1-carboxylate]
0.025 | ≤ 0.05 | CC(C)(C)OC(=O)N1CCC(COc2ccc(C3=CCC(C(=O)N4CC[C@@H](O)C4)CC3)cc2F)CC1 (stereo partly drawn) [Example 45, tert-butyl 4-((2-fluoro-4-(4-((R)-3-hydroxypyrrolidine-1-carbonyl)cyclohex-1-enyl)phenoxy)methyl)piperidine-1-carboxylate]
0.02 | ≤ 0.05 | CCc1cnc(N2CCC(COc3ccc(C4=CCC(C(=O)N5CC[C@@H](CO)C5)CC4)cc3)CC2)nc1 (stereo partly drawn) [Example 159, (4-(4-((1-(5-ethylpyrimidin-2-yl)piperidin-4-yl)methoxy)phenyl)cyclohex-3-enyl)((R)-3-(hydroxymethyl)pyrrolidin-1-yl)methanone hydrochloride]
0.007 | ≤ 0.05 | CCc1cnc(N2CCC(COc3ccc(C4=CCC(C(=O)N(CC)CCO)CC4)cc3)CC2)nc1 (stereo not shown) [Example 175, N-ethyl-4-(4-((1-(5-ethylpyrimidin-2-yl)piperidin-4-yl)methoxy)phenyl)-N-(2-hydroxyethyl)cyclohex-3-enecarboxamide]
0.037 | ≤ 0.05 | CON=C1CN(C(=O)C2CC=C(c3ccc(OCC4CCN(c5nc(C(C)C)no5)CC4)cc3)CC2)C1 (stereo not shown) [Example 286, (4-(4-((1-(3-isopropyl-1,2,4-oxadiazol-5-yl)piperidin-4-yl)methoxy)phenyl)cyclohex-3-enyl)(3-(methoxyimino)azetidin-1-yl)methanone]
0.011 | ≤ 0.05 | CO/N=C1\CCN(C(=O)C2CC=C(c3ccc(OCC4CCN(C(=O)OC(C)(C)C)CC4)cc3)CC2)C1 (stereo not shown) [Example 273, tert-butyl 4-((4-(4-(3-(methoxyimino)pyrrolidine-1-carbonyl)cyclohex-1-enyl)phenoxy)methyl)piperidine-1-carboxylate]
0.018 | ≤ 0.05 | CON=C1CCN(C(=O)C2CC=C(c3ccc(OCC4CCN(c5nc(C(C)C)no5)CC4)cc3)CC2)CC1 (stereo not shown) [Example 278, (4-(4-((1-(3-isopropyl-1,2,4-oxadiazol-5-yl)piperidin-4-yl)methoxy)phenyl)cyclohex-3-enyl)(4-(methoxyimino)piperidin-1-yl)methanone]
0.04 | ≤ 0.05 | CCc1cnc(N2CCC(COc3ccc(C4=CCC(C(=O)N5CCC(N6CCOCC6)CC5)CC4)cc3)CC2)nc1 (stereo not shown) [Example 220, (4-(4-((1-(5-ethylpyrimidin-2-yl)piperidin-4-yl)methoxy)phenyl)cyclohex-3-enyl)(4-morpholinopiperidin-1-yl)methanone]
0.012 | ≤ 0.05 | CC(C)c1noc(N2CCC(COc3ccc(C4=CCC(C(=O)N(C)CCCN)CC4)cc3)CC2)n1 (stereo not shown) [Example 77, N-(3-aminopropyl)-4-(4-((1-(3-isopropyl-1,2,4-oxadiazol-5-yl)piperidin-4-yl)methoxy)phenyl)-N-methylcyclohex-3-enecarboxamide]
0.016 | ≤ 0.05 | CCc1cnc(N2CCC(COc3ccc(C4=CCC(C(=O)N(C)CCO)CC4)cc3)CC2)nc1 (stereo not shown) [Example 21, 4-(4-((1-(5-ethylpyrimidin-2-yl)piperidin-4-yl)methoxy)phenyl)-N-(2-hydroxyethyl)-N-methylcyclohex-3-enecarboxamide]
0.025 | – | CCc1cnc(N2CCC(COc3ccc(C4=CCC(C(=O)N5CC[C@H](CO)C5)CC4)cc3)CC2)nc1 (stereo partly drawn) [Example 158, (4-(4-((1-(5-ethylpyrimidin-2-yl)piperidin-4-yl)methoxy)phenyl)cyclohex-3-enyl)((S)-3-(hydroxymethyl)pyrrolidin-1-yl)methanone hydrochloride]
0.024 | ≤ 0.05 | CC(C)c1noc(N2CCC(COc3ccc(C4=CCC(C(=O)N5CCc6ccccc6C5C)CC4)cc3)CC2)n1 (stereo not shown) [Example 213, (4-(4-((1-(3-isopropyl-1,2,4-oxadiazol-5-yl)piperidin-4-yl)methoxy)phenyl)cyclohex-3-enyl)(1-methyl-3,4-dihydroisoquinolin-2(1H)-yl)methanone]
